According to ChEMBL document CHEMBL4831541, “Antibiotic Conjugates with an Artificial MECAM-Based Siderophore Are Potent Agents against Gram-Positive and Gram-Negative Bacterial Pathogens” (2021):
Converted amounts (≈) assume the structure as drawn. The source made the active and inactive calls. The rule behind the calls is not given here.

Legend:
Escherichia coli [1] = assay: Antibacterial activity against Escherichia coli BW25113 assessed as growth inhibition by measuring minimal concentration at OD600 by visual inspection with iron-limited media incubated for 24 hrs; format: functional
Staphylococcus aureus = assay: Antibacterial activity against Staphylococcus aureus DSM11822 assessed as growth inhibition by measuring minimal concentration at OD600 by visual inspection with iron-limited media incubated for 24 hrs; format: functional
Acinetobacter baumannii = assay: Antibacterial activity against Acinetobacter baumannii DSM30007 assessed as growth inhibition by measuring minimal concentration at OD600 by visual inspection with iron-limited media incubated for 24 hrs; format: functional
Enterococcus faecium = assay: Antibacterial activity against Enterococcus faecium DSM20477 assessed as growth inhibition by measuring minimal concentration at OD600 by visual inspection with iron-limited media incubated for 24 hrs; format: functional
Klebsiella pneumoniae = assay: Antibacterial activity against Klebsiella pneumoniae DSM11678 assessed as growth inhibition by measuring minimal concentration at OD600 by visual inspection with iron-limited media incubated for 24 hrs; format: functional, organism-based
Pseudomonas aeruginosa = assay: Antibacterial activity against Pseudomonas aeruginosa DSM24068 assessed as growth inhibition by measuring minimal concentration at OD600 by visual inspection with iron-limited media incubated for 24 hrs; format: functional, organism-based
Escherichia coli [2] = assay: Recovery of growth in Escherichia coli BW25113 delta entA assessed as reversal of growth at 10 uM in presence of 0.1 uM iron(III) chloride hexahydrate by growth recovery assay; format: functional, organism-based
Escherichia coli [3] = assay: Antibacterial activity against wild type Escherichia coli BW25113 assessed as growth inhibition by measuring minimal concentration at OD600 by visual inspection with iron-limited media incubated for 24 hrs; format: functional
Escherichia coli [4] = assay: Antibacterial activity against Escherichia coli delta fepA assessed as growth inhibition by measuring minimal concentration at OD600 by visual inspection with iron-limited media incubated for 24 hrs; format: functional
Escherichia coli [5] = assay: Antibacterial activity against Escherichia coli delta cirA assessed as growth inhibition by measuring minimal concentration at OD600 by visual inspection with iron-limited media incubated for 24 hrs; format: functional
Escherichia coli [6] = assay: Antibacterial activity against Escherichia coli delta fiu assessed as growth inhibition by measuring minimal concentration at OD600 by visual inspection with iron-limited media incubated for 24 hrs; format: functional
Escherichia coli [7] = assay: Antibacterial activity against Escherichia coli delta fepA delta cirA assessed as growth inhibition by measuring minimal concentration at OD600 by visual inspection with iron-limited media incubated for 24 hrs; format: functional
Escherichia coli [8] = assay: Antibacterial activity against Escherichia coli delta […] delta fiu assessed as growth inhibition by measuring minimal concentration at OD600 by visual inspection with iron-limited media incubated for 24 hrs; format: functional
Escherichia coli [9] = assay: Antibacterial activity against Escherichia coli delta cirA delta fiu assessed as growth inhibition by measuring minimal concentration at OD600 by visual inspection with iron-limited media incubated for 24 hrs; format: functional
Escherichia coli [10] = assay: Antibacterial activity against Escherichia coli delta fepA delta cirA delta fiu assessed as growth inhibition by measuring minimal concentration at OD600 by visual inspection with iron-limited media incubated for 24 hrs; format: functional
Escherichia coli [11] = assay: Antibacterial activity against Escherichia coli delta tonB assessed as growth inhibition by measuring minimal concentration at OD600 by visual inspection with iron-limited media incubated for 24 hrs; format: functional
Escherichia coli [12] = assay: Antibacterial activity against Escherichia coli delta exbB assessed as growth inhibition by measuring minimal concentration at OD600 by visual inspection with iron-limited media incubated for 24 hrs; format: functional
Escherichia coli [13] = assay: Antibacterial activity against Escherichia coli delta fepB assessed as growth inhibition by measuring minimal concentration at OD600 by visual inspection with iron-limited media incubated for 24 hrs; format: functional
Escherichia coli [14] = assay: Antibacterial activity against Escherichia coli delta fepD assessed as growth inhibition by measuring minimal concentration at OD600 by visual inspection with iron-limited media incubated for 24 hrs; format: functional
Escherichia coli [15] = assay: Antibacterial activity against Escherichia coli K-12 BW25113 assessed as growth inhibition after 21 serial passages by measuring minimal concentration at OD600 by visual inspection with iron-limited media incubated for 24 hrs; format: functional
Escherichia coli [16] = assay: Antibacterial activity against Escherichia coli K-12 BW25113 delta exbB assessed as growth inhibition by measuring minimal concentration at OD600 by visual inspection measured after reintroduction of plasmid expressing full length exbB with iron-limited media incubated for 24 hrs; format: functional
Escherichia coli [17] = assay: Antibacterial activity against Escherichia coli K-12 BW25113 delta exbB assessed as growth inhibition by measuring minimal concentration at OD600 by visual inspection measured after reintroduction of plasmid expressing exbB Q163 mutant with iron-limited media incubated for 24 hrs; format: functional
Escherichia coli [18] = assay: Antibacterial activity against Escherichia coli K-12 BW25113 delta cyoB assessed as growth inhibition by measuring minimal concentration at OD600 by visual inspection with iron-limited media incubated for 24 hrs; format: functional
Escherichia coli [19] = assay: Antibacterial activity against Escherichia coli K-12 BW25113 delta cyoB assessed as growth inhibition by measuring minimal concentration at OD600 measured after reintroduction of plasmid expressing cyoB G269D mutant by visual inspection with iron-limited media incubated for 24 hrs; format: functional
Escherichia coli [20] = assay: Recovery of growth in Escherichia coli BW25113 delta entA delta fepA double knock out assessed as reversal of growth at 10 uM in presence of 0.1 uM iron(III) chloride hexahydrate by growth recovery assay; format: functional, organism-based
Escherichia coli [21] = assay: Recovery of growth in Escherichia coli BW25113 delta entA delta fepA double knock out assessed as reversal of growth at 10 uM in presence of 0.1 uM iron(III) chloride hexahydrate measured after reintroduction of plasmid expressing full length FepA by growth recovery assay; format: functional, organism-based

| MIC (Escherichia coli [1]) | MIC (Staphylococcus aureus) | MIC (Acinetobacter baumannii) | MIC (Enterococcus faecium) | SMILES | Activity (Klebsiella pneumoniae) | Activity (Pseudomonas aeruginosa) | Activity (Escherichia coli [2]) | also measured |
| --- | --- | --- | --- | --- | --- | --- | --- | --- |
| 1.4 µM (≈ 1.96 µg/mL) | > 46 µM | 46 µM (≈ 64.3 µg/mL) | > 46 µM | CC(=O)Oc1cccc(C(=O)NCc2cc(CNC(=O)c3cccc(OC(C)=O)c3OC(C)=O)c(NC(=O)CCCc3cn(CCC(=O)N[C@@H](C(=O)N[C@@H]4C(=O)N5[C@@H]4SC(C)(C)[C@@H]5C(=O)O)c4ccc(O)cc4)nn3)c(CNC(=O)c3cccc(OC(C)=O)c3OC(C)=O)c2)c1OC(C)=O | inactive | inactive | – | – |
| – | – | – | – | CC(=O)Oc1cccc(C(=O)NCc2cc(CNC(=O)c3cccc(OC(C)=O)c3OC(C)=O)cc(CNC(=O)c3cccc(OC(C)=O)c3OC(C)=O)c2)c1OC(C)=O | – | – | Active | – |
| – | – | – | – | CC(=O)Oc1cccc(C(=O)NCc2cc(CNC(=O)c3cccc(OC(C)=O)c3OC(C)=O)c(CNC(=O)c3cccc(OC(C)=O)c3OC(C)=O)c([N+](=O)[O-])c2)c1OC(C)=O | – | – | Active | – |
| – | – | – | – | CC(=O)Oc1cccc(C(=O)NCc2cc(CNC(=O)c3cccc(OC(C)=O)c3OC(C)=O)c([N+](=O)[O-])c(CNC(=O)c3cccc(OC(C)=O)c3OC(C)=O)c2)c1OC(C)=O | – | – | Active | Activity (Escherichia coli [20]): inactive; Activity (Escherichia coli [21]): Active |
| 18 µM (≈ 6.58 µg/mL) | > 175 µM | > 175 µM | 1.3 µM (≈ 0.475 µg/mL) | CC1(C)S[C@@H]2[C@H](NC(=O)[C@H](N)c3ccc(O)cc3)C(=O)N2[C@H]1C(=O)O [AMOXICILLIN] | – | – | – | – |
| 0.81 µM (≈ 1.24 µg/mL) | > 64 µM | 64 µM (≈ 97.9 µg/mL) | > 64 µM | CC(=O)Oc1cccc(C(=O)NCc2cc(CNC(=O)c3cccc(OC(C)=O)c3OC(C)=O)c(NC(=O)CCOCCOCCOCCOCc3cn(CCC(=O)N[C@@H](C(=O)N[C@@H]4C(=O)N5[C@@H]4SC(C)(C)[C@@H]5C(=O)O)c4ccccc4)nn3)c(CNC(=O)c3cccc(OC(C)=O)c3OC(C)=O)c2)c1OC(C)=O | inactive | inactive | – | – |
| 0.87 µM (≈ 0.996 µg/mL) | > 56 µM | 56 µM (≈ 64.1 µg/mL) | > 56 µM | CC1(C)S[C@@H]2[C@H](NC(=O)[C@H](NC(=O)CCn3cc(CCCC(=O)Nc4c(CNC(=O)c5cccc(O)c5O)cc(CNC(=O)c5cccc(O)c5O)cc4CNC(=O)c4cccc(O)c4O)nn3)c3ccc(O)cc3)C(=O)N2[C@H]1C(=O)O | inactive | inactive | – | – |

| SMILES | MIC (Escherichia coli [1]) | MIC (Staphylococcus aureus) | MIC (Acinetobacter baumannii) | MIC (Enterococcus faecium) | Activity (Klebsiella pneumoniae) | Activity (Pseudomonas aeruginosa) | Activity (Escherichia coli [2]) | also measured |
| --- | --- | --- | --- | --- | --- | --- | --- | --- |
| CC(=O)Oc1cccc(C(=O)NCc2cc(CNC(=O)c3cccc(OC(C)=O)c3OC(C)=O)c(NC(=O)CCCc3cn(CCC(=O)N[C@@H](C(=O)N[C@@H]4C(=O)N5[C@@H]4SC(C)(C)[C@@H]5C(=O)O)c4ccccc4)nn3)c(CNC(=O)c3cccc(OC(C)=O)c3OC(C)=O)c2)c1OC(C)=O | ≤ 0.09 µM | 0.12 µM (≈ 0.166 µg/mL) | ≤ 0.09 µM | 0.62 µM (≈ 0.856 µg/mL) | inactive | inactive | – | Activity (Escherichia coli [3]): inactive; MIC (Escherichia coli [4]): 2.9 µM (≈ 4.01 µg/mL); MIC (Escherichia coli [5]): 2.9 µM (≈ 4.01 µg/mL); MIC (Escherichia coli [6]): 1.5 µM (≈ 2.07 µg/mL); MIC (Escherichia coli [7]): 1.5 µM (≈ 2.07 µg/mL); MIC (Escherichia coli [8]): 1.5 µM (≈ 2.07 µg/mL); MIC (Escherichia coli [9]): 2.9 µM (≈ 4.01 µg/mL); MIC (Escherichia coli [10]): > 12 µM; MIC (Escherichia coli [11]): > 12 µM; MIC (Escherichia coli [12]): > 12 µM; MIC (Escherichia coli [13]): 2.9 µM (≈ 4.01 µg/mL); MIC (Escherichia coli [14]): 1.5 µM (≈ 2.07 µg/mL); MIC (Escherichia coli [15]): > 12 µM; MIC (Escherichia coli [16]): 2.9 µM (≈ 4.01 µg/mL); MIC (Escherichia coli [17]): > 12 µM; MIC (Escherichia coli [18]): 2.9 µM (≈ 4.01 µg/mL); MIC (Escherichia coli [19]): 2.9 µM (≈ 4.01 µg/mL) |
